Source: patent US20170190671A1, “BIS(ARYL)CATECHOL DERIVATIVES AS HERBICIDES” (E I DU PONT DE NEMOURS AND COMPANY, priority 2014, published 2017)

Tests used:
Test in all cases: Test C preemergence
Type in all cases: in vivo
[1] = system: pigweed (Amaranthus retroflexus); conditions: scale 0 to 100; for pest or weed control at 31 g/ha / pest or weed control at 62 g/ha / pest or weed control at 125 g/ha / pest or weed control at 16 g/ha: Amaranthus retroflexus, pre-emergence, 336 h, read-out: Plant response rating, Pigweed; for pest or weed control at 16 g/ha: 16 g ai/ha
Text: (§1) Seeds of plant species selected from blackgrass (Alopecurus myosuroides), Italian ryegrass (Lolium multiflorum), winter wheat (Triticum aestivum), galium (catchweed bedstraw, Galium aparine), corn (Zea mays), large (Lg) crabgrass (Digitaria sanguinalis), giant foxtail (Setaria faberii), johnsongrass (Sorghum halepense), lambsquarters (Chenopodium album), morningglory (Ipomoea coccinea), yellow nutsedge (Cyperus esculentus), pigweed (Amaranthus retroflexus), ragweed (common ragweed, Ambrosia elatior), soybean (Glycine max), barnyardgrass (Echinochloa crus-galli), oilseed rape (Brassica napus), waterhemp (common waterhemp, Amaranthus rudis), and velvetleaf (Abutilon theophrasti) were planted into a blend of loam soil and sand and treated preemergence with test chemicals formulated in a non-phytotoxic solvent mixture which included a surfactant.
(§2) At the same time, plants selected from these crop and weed species and also chickweed (common chickweed, Stellaria media), kochia (Kochia scoparia), and wild oat (Avena fatua), were planted in pots containing Redi-Earth® planting medium (Scotts Company, 14111 Scottslawn Road, Marysville, Ohio 43041) comprising spaghnum peat moss, vermiculite, wetting agent and starter nutrients and treated with postemergence applications of test chemicals formulated in the same manner. Plants ranged in height from 2 to 18 cm (1- to 4-leaf stage) for postemergence treatments. Treated plants and controls were maintained in a greenhouse for 13 to 15 days, after which time all species were compared to controls and visually evaluated. Plant response ratings, summarized in Table C, are based on a scale of 0 to 100 where 0 is no effect and 100 is complete control. A dash (-) response means no test result.

[2] = system: morningglory (Ipomoea coccinea); conditions: scale 0 to 100; for pest or weed control at 31 g/ha / pest or weed control at 62 g/ha / pest or weed control at 125 g/ha / pest or weed control at 16 g/ha: Ipomoea, pre-emergence, 336 h, read-out: Plant response rating, Morningglory; for pest or weed control at 16 g/ha: 16 g ai/ha
Text: as §1, §2

[3] = system: johnsongrass (Sorghum halepense); conditions: scale 0 to 100; for pest or weed control at 31 g/ha / pest or weed control at 62 g/ha / pest or weed control at 125 g/ha / pest or weed control at 16 g/ha: Sorghum halepense, pre-emergence, 336 h, read-out: Plant response rating, Johnsongrass; for pest or weed control at 16 g/ha: 16 g ai/ha
Text: as §1, §2

Compound	pest or weed control at 31 g/ha ([1]; 31 g ai/ha, preemergence) [%]	pest or weed control at 62 g/ha ([1]; 62 g ai/ha, preemergence) [%]	pest or weed control at 125 g/ha ([1]; 125 g ai/ha, preemergence) [%]	pest or weed control at 16 g/ha ([1]; Preemergence) [%]	pest or weed control at 31 g/ha ([2]; 31 g ai/ha, preemergence) [%]	pest or weed control at 62 g/ha ([2]; 62 g ai/ha, preemergence) [%]	pest or weed control at 125 g/ha ([2]; 125 g ai/ha, preemergence) [%]	pest or weed control at 16 g/ha ([2]; Preemergence) [%]	pest or weed control at 31 g/ha ([3]; 31 g ai/ha, preemergence) [%]	pest or weed control at 62 g/ha ([3]; 62 g ai/ha, preemergence) [%]	pest or weed control at 125 g/ha ([3]; 125 g ai/ha, preemergence) [%]	pest or weed control at 16 g/ha ([3]; Preemergence) [%]	further results
N#Cc1cccc(Oc2ncc(Br)cn2)c1Oc1ncc(Cl)cn1 [Compound 5, 3-[(5-bromo-2-pyrimidinyl)oxy]-2-[(5-chloro-2-pyrimidinyl)oxy]benzonitrile]	100	100	100	100	60	80	95	30	40	70	80	0	
N#Cc1cccc(Oc2ncc(Cl)cn2)c1Oc1ccc(Br)cn1 [Compound 15]	100	100	100	80	5	40	70	5					
Clc1cnc(Oc2cccc(Br)c2Oc2ncc(Cl)cn2)nc1 [Compound 19, 2,2′-[[3-bromo-1,2-phenylene]bis(oxy)]bis[5-chloropyrimidine]]	100	100	100	100	45	90	100	5	50	85	98	35	
FC(F)(F)c1cnc(Oc2c(Br)cccc2Oc2ncc(Cl)cn2)nc1 [Compound 24]													Plant response rating, Pigweed ([1]; 31 g ai/ha, Preemergence): 100; Plant response rating, Pigweed ([1]; 62 g ai/ha, Preemergence): 100; Plant response rating, Pigweed ([1]; 125 g ai/ha, Preemergence): 100; Plant response rating, Pigweed ([1]; 250 g ai/ha, preemergence): 100; Plant response rating, Morningglory ([2]; 31 g ai/ha, Preemergence): 25; Plant response rating, Morningglory ([2]; 62 g ai/ha, Preemergence): 85; Plant response rating, Morningglory ([2]; 125 g ai/ha, Preemergence): 80; Plant response rating, Morningglory ([2]; 250 g ai/ha, preemergence): 95; Plant response rating, Johnsongrass ([3]; 31 g ai/ha, Preemergence): 40; Plant response rating, Johnsongrass ([3]; 62 g ai/ha, Preemergence): 55; Plant response rating, Johnsongrass ([3]; 125 g ai/ha, Preemergence): 80; Plant response rating, Johnsongrass ([3]; 250 g ai/ha, preemergence): 100
